# Measurements: patent US20240376163A1, “PEPTIDE FOR INHIBITING CALCINEURIN AND USE THEREOF” (Seoul National University R&DB Foundation, priority 2023, published 2024)
# System: Jurkat T cells
# Assay: mRNA sequencing of activated Jurkat T cells
# Type: cell-based, human
# Conditions: P + I
sequence,measurement,setting,value
PEITVTPPTP [CABIN1-L-1-2],MSMO1 FPKM,Jurkat T cells,52.664 FPKM
same,MT2A FPKM,Jurkat T cells,409.501 FPKM
same,MXD3 FPKM,Jurkat T cells,20.08 FPKM
same,MYB FPKM,Jurkat T cells,48.107 FPKM
same,MZB1 FPKM,Jurkat T cells,23.597 FPKM
same,N4BP3 FPKM,Jurkat T cells,2.499 FPKM
same,NAA16 FPKM,Jurkat T cells,3.877 FPKM
same,NCKAP1 FPKM,Jurkat T cells,10.157 FPKM
same,NCOA3 FPKM,Jurkat T cells,11.775 FPKM
same,NDRG1 FPKM,Jurkat T cells,128.386 FPKM
same,NDRG2 FPKM,Jurkat T cells,2.149 FPKM
same,NEDD9 FPKM,Jurkat T cells,4.972 FPKM
same,NFATC1 FPKM,Jurkat T cells,3.916 FPKM
same,NFKB1 FPKM,Jurkat T cells,44.661 FPKM
same,NFKB2 FPKM,Jurkat T cells,71.869 FPKM
same,NLRC3 FPKM,Jurkat T cells,5.507 FPKM
same,NME4 FPKM,Jurkat T cells,17.501 FPKM
same,NOTCH2 FPKM,Jurkat T cells,12.916 FPKM
same,NOTCH3 FPKM,Jurkat T cells,0.859 FPKM
same,NPDC1 FPKM,Jurkat T cells,5.64 FPKM
same,NR4A3 FPKM,Jurkat T cells,1.977 FPKM
same,NREP FPKM,Jurkat T cells,6.879 FPKM
same,NRP1 FPKM,Jurkat T cells,14.016 FPKM
same,NSG1 FPKM,Jurkat T cells,3.929 FPKM
same,NSMF FPKM,Jurkat T cells,3.265 FPKM
same,NT5E FPKM,Jurkat T cells,12.217 FPKM
same,NTRK1 FPKM,Jurkat T cells,1.657 FPKM
same,ODC1 FPKM,Jurkat T cells,374.309 FPKM
same,OPTN FPKM,Jurkat T cells,14.333 FPKM
same,OSBPL5 FPKM,Jurkat T cells,3.123 FPKM
same,PAM FPKM,Jurkat T cells,1.934 FPKM
same,PCNA-AS1 FPKM,Jurkat T cells,71.806 FPKM
same,PDCD1 FPKM,Jurkat T cells,1.974 FPKM
same,PDGFA FPKM,Jurkat T cells,8.169 FPKM
same,PDGFC FPKM,Jurkat T cells,2.913 FPKM
same,PDIA6 FPKM,Jurkat T cells,128.39 FPKM
same,PDLIM1 FPKM,Jurkat T cells,5.135 FPKM
same,PELI2 FPKM,Jurkat T cells,8.166 FPKM
same,PEX5L FPKM,Jurkat T cells,1.299 FPKM
same,PHACTR2 FPKM,Jurkat T cells,2.791 FPKM
same,PHLDB2 FPKM,Jurkat T cells,3.404 FPKM
same,PI16 FPKM,Jurkat T cells,9.625 FPKM
same,PKIG FPKM,Jurkat T cells,11.17 FPKM
same,PKM FPKM,Jurkat T cells,1838.428 FPKM
same,PLAC8 FPKM,Jurkat T cells,1.896 FPKM
same,PLEC FPKM,Jurkat T cells,25.453 FPKM
same,PLS3 FPKM,Jurkat T cells,0.37 FPKM
same,POTEE FPKM,Jurkat T cells,1.196 FPKM
same,POU2AF1 FPKM,Jurkat T cells,2.971 FPKM
same,POU2F2 FPKM,Jurkat T cells,4.109 FPKM
same,PPIF FPKM,Jurkat T cells,106.533 FPKM
same,PPP1R15A FPKM,Jurkat T cells,76.265 FPKM
same,PPP1R16B FPKM,Jurkat T cells,26.306 FPKM
same,PRDM8 FPKM,Jurkat T cells,40.783 FPKM
same,PRNP FPKM,Jurkat T cells,41.922 FPKM
same,PSMB10 FPKM,Jurkat T cells,125.268 FPKM
same,PTPN6 FPKM,Jurkat T cells,20.806 FPKM
same,PTPN7 FPKM,Jurkat T cells,78.61 FPKM
same,PXYLP1 FPKM,Jurkat T cells,4.92 FPKM
same,QPRT FPKM,Jurkat T cells,10.818 FPKM
same,RAB37 FPKM,Jurkat T cells,1.369 FPKM
same,RASGRP1 FPKM,Jurkat T cells,3.909 FPKM
same,RASGRP2 FPKM,Jurkat T cells,2.335 FPKM
same,RB1 FPKM,Jurkat T cells,49.538 FPKM
same,RCBTB2 FPKM,Jurkat T cells,7.77 FPKM
same,RCOR2 FPKM,Jurkat T cells,1.298 FPKM
same,RGS2 FPKM,Jurkat T cells,3.39 FPKM
same,RHOU FPKM,Jurkat T cells,1.378 FPKM
same,RNF19A FPKM,Jurkat T cells,12.101 FPKM
same,RNF212 FPKM,Jurkat T cells,1.401 FPKM
same,RORA FPKM,Jurkat T cells,1.998 FPKM
same,RRAS2 FPKM,Jurkat T cells,20.023 FPKM
same,RTN4R FPKM,Jurkat T cells,1.548 FPKM
same,RUNX1 FPKM,Jurkat T cells,28.867 FPKM
same,RUNX3 FPKM,Jurkat T cells,28.166 FPKM
same,SASH3 FPKM,Jurkat T cells,46.514 FPKM
same,SBK1 FPKM,Jurkat T cells,5.945 FPKM
same,SCG2 FPKM,Jurkat T cells,86.711 FPKM
same,SCHIP1 FPKM,Jurkat T cells,1.333 FPKM
same,SEPT3 FPKM,Jurkat T cells,0.994 FPKM
same,SEPT6 FPKM,Jurkat T cells,44.841 FPKM
same,SEPT9 FPKM,Jurkat T cells,39.741 FPKM
same,SERINC5 FPKM,Jurkat T cells,3.312 FPKM
same,SERPINB8 FPKM,Jurkat T cells,23.508 FPKM
same,SERPINE2 FPKM,Jurkat T cells,3.911 FPKM
same,SERTAD1 FPKM,Jurkat T cells,14.426 FPKM
same,SGK1 FPKM,Jurkat T cells,105.258 FPKM
same,SH2D1A FPKM,Jurkat T cells,16.781 FPKM
same,SH2D2A FPKM,Jurkat T cells,22.586 FPKM
same,SH3TC1 FPKM,Jurkat T cells,1.895 FPKM
same,SIVA1 FPKM,Jurkat T cells,51.964 FPKM
same,SLAMF1 FPKM,Jurkat T cells,0.275 FPKM
same,SLAMF7 FPKM,Jurkat T cells,3.544 FPKM
same,SLAMF8 FPKM,Jurkat T cells,5.828 FPKM
same,SLC22A1 FPKM,Jurkat T cells,42.379 FPKM
same,SLC27A2 FPKM,Jurkat T cells,41.908 FPKM
same,SLC29A4 FPKM,Jurkat T cells,1.658 FPKM
same,SLC35E4 FPKM,Jurkat T cells,1.517 FPKM
same,SLC35G2 FPKM,Jurkat T cells,11.385 FPKM
same,SMAD1 FPKM,Jurkat T cells,3.995 FPKM
same,SMOX FPKM,Jurkat T cells,18.934 FPKM
same,SMPD1 FPKM,Jurkat T cells,18.206 FPKM
same,SORBS1 FPKM,Jurkat T cells,0.511 FPKM
same,SOX4 FPKM,Jurkat T cells,55.775 FPKM
same,SPINT1 FPKM,Jurkat T cells,1.712 FPKM
same,SPRY1 FPKM,Jurkat T cells,4.901 FPKM
same,SPRY4 FPKM,Jurkat T cells,7.991 FPKM
same,SPSB1 FPKM,Jurkat T cells,9.593 FPKM
same,SPTBN2 FPKM,Jurkat T cells,2.053 FPKM
same,SRGN FPKM,Jurkat T cells,9.743 FPKM
same,SSBP2 FPKM,Jurkat T cells,5.549 FPKM
same,ST3GAL6 FPKM,Jurkat T cells,5.239 FPKM
same,STAT2 FPKM,Jurkat T cells,36.117 FPKM
same,STAT3 FPKM,Jurkat T cells,74.439 FPKM
same,STAU2 FPKM,Jurkat T cells,5.719 FPKM
same,STMN3 FPKM,Jurkat T cells,7.407 FPKM
same,STX1A FPKM,Jurkat T cells,13.882 FPKM
same,SYK FPKM,Jurkat T cells,6.222 FPKM
same,TAGAP FPKM,Jurkat T cells,8.731 FPKM
same,TAL1 FPKM,Jurkat T cells,18.466 FPKM
same,TAP2 FPKM,Jurkat T cells,6.702 FPKM
same,TAPBPL FPKM,Jurkat T cells,20.693 FPKM
same,TBC1D4 FPKM,Jurkat T cells,13.191 FPKM
same,TBC1D5 FPKM,Jurkat T cells,3.021 FPKM
same,TBKBP1 FPKM,Jurkat T cells,22.205 FPKM
same,TCF3 FPKM,Jurkat T cells,36.607 FPKM
same,TCF7 FPKM,Jurkat T cells,11.184 FPKM
same,TCF12 FPKM,Jurkat T cells,29.903 FPKM
same,TDRD9 FPKM,Jurkat T cells,1.888 FPKM
same,TGFBR2 FPKM,Jurkat T cells,36.254 FPKM
same,THEM6 FPKM,Jurkat T cells,2.542 FPKM
same,THEMIS FPKM,Jurkat T cells,35.627 FPKM
same,TIAF1 FPKM,Jurkat T cells,9.375 FPKM
same,TIAM1 FPKM,Jurkat T cells,9.551 FPKM
same,TIAM2 FPKM,Jurkat T cells,0.301 FPKM
same,TLE1 FPKM,Jurkat T cells,1.647 FPKM
same,TMCC3 FPKM,Jurkat T cells,7.278 FPKM
same,TNFAIP3 FPKM,Jurkat T cells,35.424 FPKM
same,TNFRSF10B FPKM,Jurkat T cells,36.431 FPKM
same,TNFSF10 FPKM,Jurkat T cells,49.452 FPKM
same,TNFSF14 FPKM,Jurkat T cells,4.255 FPKM
same,TPM4 FPKM,Jurkat T cells,178.336 FPKM
same,TPST2 FPKM,Jurkat T cells,29.147 FPKM
same,TRAF3IP3 FPKM,Jurkat T cells,11.237 FPKM
same,TRIB1 FPKM,Jurkat T cells,4.108 FPKM
same,TRIM21 FPKM,Jurkat T cells,42.08 FPKM
same,TTLL1 FPKM,Jurkat T cells,3.295 FPKM
same,UBE2L6 FPKM,Jurkat T cells,167.347 FPKM
same,UHRF1 FPKM,Jurkat T cells,6.903 FPKM
same,VAMP1 FPKM,Jurkat T cells,14.752 FPKM
same,VAT1 FPKM,Jurkat T cells,40.336 FPKM
same,VAV1 FPKM,Jurkat T cells,22.182 FPKM
same,WARS FPKM,Jurkat T cells,112.259 FPKM
same,WDR76 FPKM,Jurkat T cells,8.215 FPKM
same,XCL1 FPKM,Jurkat T cells,1.144 FPKM
same,XCL2 FPKM,Jurkat T cells,2.074 FPKM
same,XIRP1 FPKM,Jurkat T cells,13.281 FPKM
same,XRCC6BP1 FPKM,Jurkat T cells,9.204 FPKM
same,YPEL1 FPKM,Jurkat T cells,4.38 FPKM
same,ZFP36L1 FPKM,Jurkat T cells,136.279 FPKM
same,ZFP36L2 FPKM,Jurkat T cells,9.774 FPKM
same,ZNF280D FPKM,Jurkat T cells,2.132 FPKM
same,ZNF367 FPKM,Jurkat T cells,2.274 FPKM
same,ZNF480 FPKM,Jurkat T cells,6.823 FPKM
same,ZNF521 FPKM,Jurkat T cells,1.965 FPKM
same,ZNF652 FPKM,Jurkat T cells,2.469 FPKM
same,ZNF704 FPKM,Jurkat T cells,0.183 FPKM
same,ZNF827 FPKM,Jurkat T cells,1.372 FPKM
same,ZNFX1 FPKM,Jurkat T cells,19.096 FPKM
same,ZP4 FPKM,Jurkat T cells,5.182 FPKM
same,ZYX FPKM,Jurkat T cells,85.489 FPKM
same,ADORA2A FPKM,,1.475 FPKM
same,AGK FPKM,,14.306 FPKM
same,ARHGEF3 FPKM,,8.674 FPKM
same,ASAP1 FPKM,,9.052 FPKM
same,ATG14 FPKM,,11.252 FPKM
same,ATP6V1B2 FPKM,,60.661 FPKM
same,BCL2L1 FPKM,,41.852 FPKM
same,C3 FPKM,,1.329 FPKM
same,C10orf54 FPKM,,0.487 FPKM
same,CABP1 FPKM,,1.689 FPKM
same,CCDC64 FPKM,,11.039 FPKM
same,CCL1 FPKM,,0.415 FPKM
same,CCL3 FPKM,,0.502 FPKM
same,CCL3L1 FPKM,,0.079 FPKM
same,CCL3L3 FPKM,,0.079 FPKM
same,CCL4 FPKM,,4.062 FPKM
same,CCL4L1 FPKM,,0.328 FPKM
same,CCL4L2 FPKM,,0.328 FPKM
same,CCL20 FPKM,,1.279 FPKM
same,CCND2 FPKM,,0.99 FPKM
same,CD27-AS1 FPKM,,4.613 FPKM
same,CD27 FPKM,,3.4 FPKM
same,CD55 FPKM,,12.082 FPKM
same,CD70 FPKM,,7.606 FPKM
same,CD97 FPKM,,21.496 FPKM
same,CD200 FPKM,,0.094 FPKM
same,COL27A1 FPKM,,5.729 FPKM
same,CREB5 FPKM,,1.966 FPKM
